The source of these data is ChEMBL document CHEMBL4414609, “High-Affinity Alkynyl Bisubstrate Inhibitors of Nicotinamide N-Methyltransferase (NNMT)” (J Med Chem, 2019).

The nature of data set [1]: Permeability across apical to basolateral side in human Caco2 cells after 60 mins by HPLC-MS/MS analysis. Conditions: caco-2, 1 h. It is filed as ADME, cell-based. In general terms: Caco-2 cells form a polarised layer with tight junctions and transporters.
The subject of data set [2] is U2OS. The data set can be described thus: Cytotoxicity against human U2OS cells at 100 uM after 48 hrs by CellTiter-Glo luminescent cell viability. The class given is cell-based. On the technique in general: Cellular ATP, detected with luciferase, serves as a proxy for viable cell number.
In data set [3] the target is T1, Nicotinamide N-methyltransferase (Homo sapiens, UniProt P40261).
T1 sequence (P40261 whole entry): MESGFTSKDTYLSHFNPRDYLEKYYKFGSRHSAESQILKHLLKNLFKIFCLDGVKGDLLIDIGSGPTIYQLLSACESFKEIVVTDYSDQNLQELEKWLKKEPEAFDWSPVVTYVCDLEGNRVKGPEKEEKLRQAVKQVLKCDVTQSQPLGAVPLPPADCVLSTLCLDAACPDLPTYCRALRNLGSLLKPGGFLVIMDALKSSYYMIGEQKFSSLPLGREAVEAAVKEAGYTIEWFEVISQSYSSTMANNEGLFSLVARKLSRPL
The data set can be described thus: Inhibition of N-terminal His6-tagged wild type human NNMT expressed in Escherichia coli NiCo21(DE3) assessed as reduction in 1-methylquinolinium level using quinoline as substrate in presence of SAM and measured every 27 seconds for 5.5 mins by fluorescence-based assay. Conditions: read-out: pKi (converted).

In data set [4] the target is T2, Nicotinamide N-methyltransferase (Homo sapiens) (UniProt P40261).
T2 sequence (whole entry): T1 sequence (P40261 whole entry)
The following applies: K562, Lysate.

With `COC(=O)[C@@H](N)CC[C@H](C#Cc1cccc(C(N)=O)c1)C[C@H]1O[C@@H](n2cnc3c(N)ncnc32)[C@H](O)[C@@H]1O`, in data set [1], the permeability result is “Impermeable”. Besides, the Activity entry in data set [2] is listed as “Non-Toxic”. Besides, the Ki in data set [3] was 437 nM.

Turning to `NC(=O)c1cncc(C#C[C@@H](CC[C@H](N)C(=O)O)C[C@H]2O[C@@H](n3cnc4c(N)ncnc43)[C@H](O)[C@@H]2O)c1`, the Ki in data set [3] is 5.01 nM.

Regarding `NC(=O)c1cccc(C#C[C@@H](CCCC(=O)O)C[C@H]2O[C@@H](n3cnc4c(N)ncnc43)[C@H](O)[C@@H]2O)c1`, in data set [3], the Ki is 22400 nM.

As to `NC(=O)c1cc(C#C[C@@H](CC[C@H](N)C(=O)O)C[C@H]2O[C@@H](n3cnc4c(N)ncnc43)[C@H](O)[C@@H]2O)ccc1F`, the Ki in data set [3] was 1.86 nM.

For `NC(=O)c1cc(C#C[C@@H](CC[C@H](N)C(=O)O)C[C@H]2O[C@@H](n3cnc4c(N)ncnc43)[C@H](O)[C@@H]2O)ccn1`, the Ki in data set [3] is 8.91 nM.

Consider `NC(=O)c1cccc(C#C[C@@H](CC[C@H](N)C(=O)O)C[C@H]2O[C@@H](n3cnc4c(N)ncnc43)[C@H](O)[C@@H]2O)n1`, for which the Ki in data set [3] is 6.76 nM.

As to `NC(=O)c1cc(C#C[C@@H](CC[C@H](N)C(=O)O)C[C@H]2O[C@@H](n3cnc4c(N)ncnc43)[C@H](O)[C@@H]2O)ccc1Cl`, the Ki in data set [3] was 0.191 nM.

For `NC(=O)c1cccc(CCN(CCC[C@H](N)C(=O)O)C[C@H]2O[C@@H](n3cnc4c(N)ncnc43)[C@H](O)[C@@H]2O)c1`, the Ki in data set [3] is 89.1 nM.

As for `Nc1ncnc2c1ncn2[C@@H]1O[C@H](C[C@@H](C#Cc2ccccc2)CC[C@H](N)C(=O)O)[C@@H](O)[C@H]1O`, the Ki in data set [3] was 12600 nM.

As usually defined, the ΔTm is the shift of the melting midpoint relative to a reference. Take `NC(=O)NCC[C@H](C#Cc1cccc(C(N)=O)c1)C[C@H]1O[C@@H](n2cnc3c(N)ncnc32)[C@H](O)[C@@H]1O`: in data set [1], the permeability entry is “Impermeable”. Besides, the ΔTm in data set [4] was 5 °C. In addition, the Activity result in data set [2] is reported as “Non-Toxic”. Also, the Ki in data set [3] was 75.9 nM.

With `NC(=O)c1ccnc(C#C[C@@H](CC[C@H](N)C(=O)O)C[C@H]2O[C@@H](n3cnc4c(N)ncnc43)[C@H](O)[C@@H]2O)c1`, the Ki in data set [3] was 35.5 nM.

Regarding `NC(=O)c1cccc(CC[C@H](CC[C@H](N)C(=O)O)C[C@H]2O[C@@H](n3cnc4c(N)ncnc43)[C@H](O)[C@@H]2O)c1`, the Ki in data set [3] was 107 nM.

In the case of `C#C[C@@H](CC[C@H](N)C(=O)O)C[C@H]1O[C@@H](n2cnc3c(N)ncnc32)[C@H](O)[C@@H]1O`, the Ki in data set [3] was 47900 nM.

In the case of `NC(=O)c1cccc(CC[C@@H](CC[C@H](N)C(=O)O)C[C@H]2O[C@@H](n3cnc4c(N)ncnc43)[C@H](O)[C@@H]2O)c1`, the Ki in data set [3] is 4.68 nM.

Regarding `Nc1ncnc2c1ncn2[C@@H]1O[C@H](C[C@@H](C#Cc2ccc3c(c2)C(=O)NCC3)CC[C@H](N)C(=O)O)[C@@H](O)[C@H]1O`, the Ki in data set [3] is 55 nM.

With `Cc1ccc(C#C[C@@H](CC[C@H](N)C(=O)O)C[C@H]2O[C@@H](n3cnc4c(N)ncnc43)[C@H](O)[C@@H]2O)cc1C(N)=O`, the Ki in data set [3] is 3.39 nM.

With `NC(=O)c1cccc(C#C[C@@H](CC[C@H](N)C(N)=O)C[C@H]2O[C@@H](n3cnc4c(N)ncnc43)[C@H](O)[C@@H]2O)c1`, the permeability result in data set [1] is on record as “Impermeable”. In data set [2], the Activity result is on record as “Non-Toxic”. Also, the Ki in data set [3] was 17 nM.

As to `NC(=O)c1cccc(C#C[C@@H](CCC[C@H](N)C(=O)O)C[C@H]2O[C@@H](n3cnc4c(N)ncnc43)[C@H](O)[C@@H]2O)c1`, the Ki in data set [3] was 0.24 nM.

Consider `Nc1ncnc2c1ncn2[C@@H]1O[C@H](C[C@@H](C#Cc2ccc3c(c2)C(=O)NC3)CC[C@H](N)C(=O)O)[C@@H](O)[C@H]1O`, for which, in data set [3], the Ki was 1860 nM.

As for `CO[C@@H]1O[C@H](C[C@@H](C#Cc2cccc(C(N)=O)c2)CC[C@H](N)C(=O)O)[C@@H](O)[C@H]1O`, the Ki in data set [3] is 77600 nM.

For `NC(=O)c1cc(C#C[C@@H](CC[C@H](N)C(=O)O)C[C@H]2O[C@@H](n3cnc4c(N)ncnc43)[C@H](O)[C@@H]2O)ccc1C(F)(F)F`, in data set [3], the Ki was 2.63 nM.

Regarding `NCCC[C@H](C#Cc1cccc(C(N)=O)c1)C[C@H]1O[C@@H](n2cnc3c(N)ncnc32)[C@H](O)[C@@H]1O`, the permeability in data set [1] is 1.3 ×10⁻⁶ cm/s. The Activity result in data set [2] is “Non-Toxic”. In addition, in data set [3], the Ki is 57.5 nM.

Consider `NC(=O)c1ccccc1C#C[C@@H](CC[C@H](N)C(=O)O)C[C@H]1O[C@@H](n2cnc3c(N)ncnc32)[C@H](O)[C@@H]1O`, for which, in data set [3], the Ki was 19500 nM.

With `NC(=O)CCC[C@H](C#Cc1cccc(C(N)=O)c1)C[C@H]1O[C@@H](n2cnc3c(N)ncnc32)[C@H](O)[C@@H]1O`, the Ki in data set [3] is 1050 nM.

Consider `NC(=O)c1cccc(C#C[C@H](CC[C@H](N)C(=O)O)C[C@H]2O[C@@H](n3cnc4c(N)ncnc43)[C@H](O)[C@@H]2O)c1`, for which, in data set [3], the Ki is 123 nM.

As to `NC(=O)c1cc(C#C[C@@H](CC[C@H](N)C(=O)O)C[C@H]2O[C@@H](n3cnc4c(N)ncnc43)[C@H](O)[C@@H]2O)c2c(c1)OCO2`, the Ki in data set [3] was 32.4 nM.

Regarding `NC(=O)c1cccc(C#CCC[C@H]2O[C@@H](n3cnc4c(N)ncnc43)[C@H](O)[C@@H]2O)c1`, the Ki in data set [3] is 263 nM.

For `Nc1cccc2c(C#C[C@@H](CC[C@H](N)C(=O)O)C[C@H]3O[C@@H](n4cnc5c(N)ncnc54)[C@H](O)[C@@H]3O)cccc12`, the Ki in data set [3] is 3720 nM.

Consider `NC(=O)c1cccc(C#C[C@@H]2C[C@H]2[C@H]2O[C@@H](n3cnc4c(N)ncnc43)[C@H](O)[C@@H]2O)c1`, for which the Ki in data set [3] is 3890 nM.

For `Nc1ncnc2c1ncn2[C@@H]1O[C@H](CCCC[C@H](N)C(=O)O)[C@@H](O)[C@H]1O`, the Ki in data set [3] was 21400 nM.

Take `NC(=O)c1ccc(C#C[C@@H](CC[C@H](N)C(=O)O)C[C@H]2O[C@@H](n3cnc4c(N)ncnc43)[C@H](O)[C@@H]2O)cc1`: the Ki in data set [3] was 5750 nM.

Turning to `NC(=O)c1cccc(CCN(CC[C@H](N)C(=O)O)C[C@H]2O[C@@H](n3cnc4c(N)ncnc43)[C@H](O)[C@@H]2O)c1`, in data set [3], the Ki is 912 nM.

`Nc1ncnc2c1ncn2[C@@H]1O[C@H](C[C@@H](C#Cc2cccc(S(N)(=O)=O)c2)CC[C@H](N)C(=O)O)[C@@H](O)[C@H]1O`: in data set [3], the Ki was 195 nM.
